Reference: patent publication US7169930B2, “Analogs of epothilone” (The Scripps Research Institute, priority 2002, dated 2007)

Experiments:
[1] = biological target: taxoid binding site of microtubules; experiment: Fluorescent taxoid (Flutax-2) displacement assay; conditions: 37° C., read-out: equilibrium dissociation constant Kd
Procedure: In addition to the above biological assays, the relative potency of each epothilone analogue was measured by the fluorescent taxoid displacement assay (Andreu, J. M.; Barasoain, I. Biochemistry 2001, 40, 11975–11984). The purpose of these experiments was to compare the equilibrium constants with which microtubules bind at their taxane site the epothilone analogues investigated. The inhibition of the binding of the well-characterized fluorescent taxoid Flutax-2 (Souto, A. A.; et al. Angew. Chem. Int. Ed. Engl. 1995, 34, 2710–2712; Diaz, J. F.; et al. J. Biol. Chem. 2000, 275, 26265–26276; Abal, M.; et al. Cell. Motil. Cytoskeleton 2001, 49, 1–15) to microtubules by each of the epothilone analogues was measured at 37° C. (FIG. 2). […]
FIG. 2 illustrates a chart showing the displacement of the fluorescent taxoid Flutax-2 (50 nM) from microtubule binding sites (50 nM) by competing ligands at 37° C. […] Representative curves for selected epothilone analogues (3, 4, and 8) are presented in this figure to exemplify how the binding affinities were measured for each compound in Table 3.
FIG. 16 illustrates a table disclosing binding affinities of epothilone analogues to the taxoid binding site of microtubules. […] The binding constant of the reference ligand Flutax-2 was measured by centrifugation and fluorescence anisotropy, at each temperature (Diaz, J. F.; et al. J. Biol. Chem. 2000, 275, 26265–26276).

[2] = test system: 1A9 human ovarian carcinoma cells; conditions: previous data, Tetrahedron 2002, 58, 6413; cited from earlier work
porcine tubulin = porcine tubulin (Sus scrofa, UniProt P02554); conditions: data from ref. 3; cited from earlier work
[3] = test system: 1A9 human ovarian carcinoma cells; experiment: Cytotoxicity, 72 h growth inhibition SRB (sulforhodamine-B) assay, parental cell line; assay type: cell-based
Procedure: The biological activities of the synthesized epothilones were evaluated through cytotoxicity, in vitro tubulin polymerization, and tubulin binding assays. Cytotoxicity was first evaluated in a set of ovarian carcinoma cell lines, including a parental cell line (IA9) and three drug-resistant cell lines, namely the paclitaxel-resistant strains (Giannakakou, P.; et al. J. Biol. Chem. 1997, 272, 17118–17125) IA9/PTX10 and IA9/PTX22 and the epothilone-resistant strain (Giannakakou, P.; et al. Proc. Natl. Acad. Sci. U.S.A. 2000, 97, 2904–2909) 1A9/A8. These resistant cell lines harbor distinct acquired β-tubulin mutations which affect drug-tubulin interaction and result in impaired taxane and epothilone-driven tubulin polymerization. The results of these biological investigations are summarized in Table 1 (Skehan, P.; et al. J. Natl. Cancer Inst. 1990, 82, 1107–1112). […]
(§1) The biological activities of the synthesized epothilones were evaluated through cell growth inhibition assays (cytotoxicity assays). Cytotoxicity was first evaluated in a set of ovarian carcinoma cell lines, including a parental cell line (IA9) and three drug-resistant cell lines, namely the paclitaxel-resistant cell lines IA9/PTX10 and IA9/PTX22 (Giannakakou, P.; et al. J. Biol. Chem. 1997, 272, 17118–17125.) and the epothilone-resistant cell line 1A9/A8 (Giannakakou, P.; et al. Proc. Natl. Acad. Sci. 2000, 97, 2904–2909.). […]

KB-8511 cells [4] = conditions: previously shown, Tetrahedron 2002, 58, 6413; cited from earlier work
KB-8511 cells [5] = experiment: Cytotoxicity, 96 hour drug exposure, protein dye method, Pgp-overexpressing line; assay type: cell-based, human; conditions: versus KB-31; Table 2
Procedure: (§2) The biological activities of the synthesized epothilones were evaluated through cytotoxicity, in vitro tubulin polymerization, and tubulin binding assays. Cytotoxicity was first evaluated in a set of ovarian carcinoma cell lines, including a parental cell line (IA9) and three drug-resistant cell lines, namely the paclitaxel-resistant strains (Giannakakou, P.; et al. J. Biol. Chem. 1997, 272, 17118–17125) IA9/PTX10 and IA9/PTX22 and the epothilone-resistant strain (Giannakakou, P.; et al. Proc. Natl. Acad. Sci. U.S.A. 2000, 97, 2904–2909) 1A9/A8. […]
as §1
(§3) FIG. 15 illustrates a table disclosing the tubulin polymerization potency and cytotoxicity of epothilones 1–8, 10–14, and paclitaxel against human epidermoid cancer cell lines. […] Relative resistance (RR) was calculated by dividing the IC50 value for the resistant cell line by that of the sensitive cell line. […]

[6] = test system: KB-31 human epidermoid carcinoma cells; experiment: Cytotoxicity, 96 hour drug exposure, protein dye method, parent epidermoid line; assay type: cell-based; conditions: KB 3-1, KB-31 cells, 96 hour exposure
Procedure: as §2, §1, §3

porcine tubulin, sequence (P02554 whole entry): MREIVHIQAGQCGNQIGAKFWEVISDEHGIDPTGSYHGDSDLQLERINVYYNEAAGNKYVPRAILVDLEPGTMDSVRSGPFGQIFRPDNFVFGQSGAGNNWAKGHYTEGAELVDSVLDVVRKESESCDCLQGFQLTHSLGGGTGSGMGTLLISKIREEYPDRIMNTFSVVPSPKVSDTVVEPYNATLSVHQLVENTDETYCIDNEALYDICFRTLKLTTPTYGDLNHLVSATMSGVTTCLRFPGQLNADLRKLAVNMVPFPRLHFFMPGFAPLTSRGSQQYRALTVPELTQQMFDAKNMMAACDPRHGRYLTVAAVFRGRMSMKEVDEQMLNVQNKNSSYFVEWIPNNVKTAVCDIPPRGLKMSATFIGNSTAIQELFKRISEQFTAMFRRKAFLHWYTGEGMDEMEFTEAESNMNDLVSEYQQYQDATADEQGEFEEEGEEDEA
porcine tubulin, sequence (P02550 whole entry partner): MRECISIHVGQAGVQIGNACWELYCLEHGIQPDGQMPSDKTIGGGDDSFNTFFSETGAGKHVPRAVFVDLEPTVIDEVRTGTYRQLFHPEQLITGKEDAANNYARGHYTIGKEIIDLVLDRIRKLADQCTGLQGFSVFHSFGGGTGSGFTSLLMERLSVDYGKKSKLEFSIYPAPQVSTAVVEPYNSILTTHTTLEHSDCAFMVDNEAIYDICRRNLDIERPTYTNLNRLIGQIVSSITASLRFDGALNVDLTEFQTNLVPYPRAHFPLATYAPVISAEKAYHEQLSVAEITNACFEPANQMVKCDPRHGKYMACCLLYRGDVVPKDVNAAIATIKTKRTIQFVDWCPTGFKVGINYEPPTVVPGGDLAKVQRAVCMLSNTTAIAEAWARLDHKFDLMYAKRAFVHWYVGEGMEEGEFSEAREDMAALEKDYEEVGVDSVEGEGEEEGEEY

## CSc1nc(/C=C(\C)[C@@H]2C[C@@H]3O[C@]3(C)CCC[C@H](C)[C@H](O)[C@@H](C)C(=O)C(C)(C)[C@@H](O)CC(=O)O2)cs1 [Compound 3, 2-(thiomethyl)thiazole epothilone B]
[1]
  Kd: 0.64 ± 0.24 nM
[2]
  fold more active than the parent epothilone B: about 2 fold

## C/C(=C\c1csc(C)n1)[C@@H]1C[C@@H]2O[C@]2(C)CCC[C@H](C)[C@H](O)[C@@H](C)C(=O)C(C)(C)[C@@H](O)CC(=O)O1 [Compound 2, epothilone B]
Porcine tubulin
  % TP (tubulin polymerization): 90%
[3]; cis epoxide series, conclusion drawn collectively from all three assays
  fold more active than epothilone A (1): at least 10 fold

## C/C(=C\c1csc(C)n1)[C@@H]1C[C@@H]2O[C@@H]2CCC[C@H](C)[C@H](O)[C@@H](C)C(=O)C(C)(C)[C@@H](O)CC(=O)O1 [Compound 1, epothilone A]
Porcine tubulin
  % TP (tubulin polymerization): 69%
[1]
  Kd: 34 ± 4 nM

## CC(=O)O[C@H]1C(=O)[C@@]2(C)[C@H]([C@H](OC(=O)c3ccccc3)[C@]3(O)C[C@H](OC(=O)[C@H](O)[C@@H](NC(=O)c4ccccc4)c4ccccc4)C(C)=C1C3(C)C)[C@]1(OC(C)=O)CO[C@@H]1C[C@@H]2O [paclitaxel]
Porcine tubulin
  % TP (tubulin polymerization): 49%
KB-8511 cells [4]
  fold less active against KB-8511 cells compared to KB-31 cells: 214 fold
KB-8511 cells [5]
  fold less active against KB-8511 cells: 214 fold

## CC(=Cc1ccc(C)cn1)C1CC2CC2(C)CCCC(C)C(O)C(C)C(=O)C(C)(C)C(O)CC(=O)O1 (centres unmarked) [Compound 8]
[6]
  IC50: 0.9 nM
[3]; Homo sapiens, 1A9 cells, 72 h SRB assay
  IC50: 1.7 nM
